Values of other authors in paper PMC3923778 (PLoS Currents, 2014).

Test system: HD mouse models
Set-up: method as in PMID 19281846, PMID 20923867, PMID 19291221, PMID 17184995
Conditions: ref [5], [7], [14], [15]; cited from earlier work

## COc1ccc(C2CNC(=O)C2)cc1OC1CCCC1 (centres unmarked) [rolipram]
  disease progression in HD mouse models: significantly delay disease progression

## TP-10
  disease progression in HD mouse models: significantly delay disease progression
